{
  "source": "patent US20080318939A1",
  "about": "“METHODS FOR TREATING OPHTHALMIC DISORDERS” (priority 2007, published 2008)",
  "key": {"leukemia cells": {"system": "leukemia cells", "experiment": "inhibition of proliferation of leukemia cells", "format": "cell-based", "conditions": "cells associated with a cell proliferation condition"}, "normal bone marrow cells": {"system": "normal bone marrow cells", "experiment": "inhibition of proliferation of normal bone marrow cells", "format": "cell-based", "conditions": "specificity"}, "[1]": {"experiment": "permeation of the blood-brain barrier"}},
  "data": [
    {"smiles": "CN1CCCC1CCNC(=O)c1cn2c3c(c(N4CCC(c5cnccn5)C4)c(F)cc3c1=O)Oc1cc3ccccc3cc1-2", "note": "(stereo not drawn) [TA1-1A]", "values": [
      {"measurement": "inhibition of leukemia cells", "setting": "leukemia cells", "value": "inhibits leukemia cells"},
      {"measurement": "inhibition of normal bone marrow cells", "setting": "normal bone marrow cells", "value": "without inhibiting normal bone marrow cells"}
    ]},
    {"smiles": "CC(=O)N1CCN(c2nc3c(cc2F)c(=O)c(C(=O)NCCN2CCCC2)c2n(C)c4ccccc4n32)CC1", "note": "[TA4-1 A]", "values": [
      {"measurement": "blood-brain barrier permeation", "setting": "[1]", "value": "significantly permeates the blood-brain barrier"}
    ]}
  ]
}
